From patent EP4570800A1, “CRYSTAL FORM OF PYRIDINOPYRIMIDINONE COMPOUND, ACID SALT THEREOF, CRYSTAL FORM OF ACID SALT THEREOF, AND USE” (Wuhan Humanwell Innovative Drug Research and Development …, priority 2022, dated 2024)

Assays:
[1] = test system: NCI-H1975 non-small cell lung cancer; experiment: In vivo efficacy test of NCI-H1975 non-small cell lung cancer (combination with osimertinib); design: species or system mice; settings: 1 mg/kg, QD
Method: NCI-H1975 tumor cells were cultured in an incubator at 37°C and 5% CO2 using medium containing inactivated RPMI 1640 + 10% FBS. After reaching a confluency rate of 80 to 90%, the cells were passaged by subculturing. After one week of adaptive feeding in mice, NCI-H1975 cells in logarithmic phase were inoculated subcutaneously into the right flank of mice at a concentration of 5 × 10^6/100 µL. Tumor growth was regularly monitored until the tumors reached an average volume of 100 to 150 mm^3. […] Tumor size and animal weight were measured and recorded before and during the administration process. The differences in tumor size between the model group and administration group were compared to determine the efficacy.

[2] = Dynamic solubility in water, SGF, FaSSIF and FeSSIF; settings: listed as Crystal form A of compound of formula I; for S: solubility: 37°C, solid feed concentration 10 mg/mL; for pH: pH value of the filtrate
Method: 100 mg of NaCl and 50 mg of Triton X-100 were weighed into a 50 mL volumetric flask, and purified water was added to complete dissolution. 816 µL of 1 M hydrochloric acid was added thereto, and the pH was adjusted to 1.8 with 1 M hydrochloric acid or 1 M NaOH solution. Purified water was added to make up to volume.
340 mg of anhydrous NaH2PO4, 42 mg of NaOH, and 620 mg of NaCl were weighed into a 100 mL volumetric flask. Purified water was added to complete dissolution. The pH was adjusted to 6.5 with 1 M hydrochloric acid or 1 M NaOH solution. Purified water was added to make up to volume. 110 mg of SIF powder was then weighed into a 50 mL volumetric flask, added with the above solution to complete dissolution and make up to volume.
About 90 mL of purified water was added to complete dissolution, and the pH was adjusted to 5.0 with 1 M hydrochloric acid or 1 M NaOH solution. Purified water was added to make up to volume. 560 mg of SIF powder was then weighed into a 50 mL volumetric flask, added with the above solution to complete dissolution and make up to volume.
Rotating mixing was carried out at 37°C at a solid feed concentration of 10 mg/mL (calculated as the compound of formula I). […] After sampling at each time point, the samples were centrifuged (10000 rpm) and filtered (0.45 µm PTFE filter head), and the HPLC concentration and pH value of the filtrate were measured.

[3] = Hygroscopicity by dynamic vapor sorption (DVS); assay type: physicochemical; settings: 25°C
Method: The dynamic vapor sorption (DVS) curve was collected on DVS IntrInsic from SMS (surface measurement systems). The relative humidity at 25°C was corrected using the deliquescence points of LiCl, Mg(NO3)2, and KCl.
Starting from 0%RH or room humidity, the test collected the mass change percentage of the sample as the humidity changed (0%RH to 95%RH) under constant temperature conditions of 25°C.

[4] = Solid state stability (XRPD and HPLC); assay type: physicochemical; settings: for HPLC results Purity (area%) / Crystal form: listed as Crystal form A of compound of formula I
Method: The purity test, dynamic solubility test, and stability test in the assay were measured with an Agilent 1260 high-performance liquid chromatograph, and the salt formation molar ratio of ions was tested by ion chromatography, and the analytical conditions are shown in Table 5 and Table 6.
Table 56 Summary of solid state stability evaluation

[5] = Influence of vacuum drying conditions on crystal form A (XRPD, HPLC purity); assay type: physicochemical
Method: In order to evaluate the influence of the drying conditions on the crystal form A of the compound of formula I, the changes of the sample before and after vacuum drying of the crystal form A of the compound of formula I under the condition of 60°C/80°C for 4 hours were respectively investigated. The XRPD, ^1H NMR, and HPLC purity of the dried sample were tested. […]

H358 cells = experiment: Inhibition of 3D cell proliferation (3D CellTiter-Glo); assay type: cell-based; settings: Homo sapiens, NCI-H358, 168 h; 3D cell proliferation in H358 cells, 7 days culture, 3D CellTiter-Glo
Method: H358 cells were seeded in a T75 culture flask, and cultured in a RPMI 1640 medium containing 10% FBS for 2 days for subsequent experiments in which the cells would be cultured or seeded on a 384-well plate.
On day 1, the cells were seeded on the 384-well plate, with 40 µL of medium added per well and serially diluted compounds or DMSO added per well, and an additional well without seeded cells but with medium was set up as a blank control. After culture at 37°C, 5% CO2 for 7 days, the plate was added with 3D CellTiter-Glo reagent (Promega, Cat. No. G9683) on day 8, shaken at 320 rpm for 20 min, and left at room temperature for 2 h. Luminescence signals were read on a multifunctional microplate reader. Cell viability inhibition rate was calculated as: [formula]
(§1) IC50 values were calculated using Graphpad 5 software.

[6] = Human liver microsome stability test; assay type: in vitro ADME; settings: human liver microsomes, incubation for 30 min, 37°C
Method: The human liver microsome stability test was performed by incubating the compound and human liver microsomes in vitro. First, the compound to be tested was prepared into a 10 mM stock solution in DMSO solvent, and then the compound was diluted to 0.5 mM with acetonitrile. Human liver microsomes (Corning) were diluted with PBS into a microsome/buffer solution, and the solution was used to dilute 0.5 mM compound into a working solution, in which the concentration of the compound was 1.5 µM, and the concentration of human liver microsomes was 0.75 mg/mL. A deep-well plate was taken, 30 µL of the working solution was added per well, and then 15 µL of pre-heated 6 mM NADPH solution was added thereto to initiate a reaction, and the reaction was incubated at 37°C. At 0, 5, 15, 30, and 45 min of the incubation, 135 µL of acetonitrile was added to the corresponding wells to terminate the reaction. After the reaction was terminated with acetonitrile at the last time point of 45 min, the deep-well plate was vortexed for 10 min (600 rpm/min), and then centrifuged for 15 min. After centrifugation, the supernatant was collected, and added with purified water in a ratio of 1:1 to perform LC-MS/MS detection. A ratio of a peak area of compound to a peak area of internal standard at each time point was obtained, and the peak area ratios of the compound at 5, 15, 30, and 45 min were compared with the peak area ratio at 0 min to calculate the remaining percentage of the compound at each time point. T1/2 was calculated by using GraphPad 5 software.

[7] = test system: ERK phosphorylation level in DLD-1 cells; experiment: Inhibition of ERK phosphorylation level in DLD-1 cells (intracellular western blot); assay type: cell-based; settings: Homo sapiens
Method: Intracellular western blot quantitative analysis was used to detect the inhibitory level of compounds on ERK phosphorylation in DLD-1 cells.
DLD-1 cells (ATCC, CCL-221) were seeded in a T75 culture flask at 2.5 × 10^6 cells/flask, and cultured in a RPMI 1640 medium containing 10% FBS for 2 days. On day 3, the cells were seeded on a 384-well plate, and cultured overnight at 37°C, 5% CO2. After overnight culture, the plate was added with serially diluted compounds (the final content of DMSO was 0.5%), the negative group was added with DMSO, and incubated in a 37°C, 5% CO2 incubator.
The cells were fixed, washed once with PBS, treated to disrupt membranes, and blocked at room temperature for 1 h. The blocking solution was removed. The plate was added with primary antibody (CST, Cat. No. #4370S), and incubated overnight at 4°C. The plate was washed 3 times with PBST (PBS solution added with 0.05% Tween-20), and soaked for 2 min each time. The plate was added with secondary antibody (LI-COR, Cat. No. 926-32211), and incubated at room temperature in the dark. The plate was washed 3 times with PBST, and soaked for 2 min each time. The plate was centrifuged at 1000 rpm for 1 min, scanned on a two-color infrared laser imaging system (Odyssey® CLX) to read the signal. Relative signal = 800-channel signal values/700-channel signal values. […]
as §1

For `C=CC(=O)Nc1cc(Nc2nccc(-c3cn(C)c4ccccc34)n2)c(OC)cc1N(C)CCN(C)C` [Osimertinib], the “Average tumor weight at the end of the treatment” value [1] was 3.2 g.

In the case of `Cc1nc(N[C@H](C)c2cccc(S(F)(F)(F)(F)F)c2)c2cn(C3(CF)CC3)c(=O)cc2n1`, the “S: solubility” value ([2]; FaSSIF, 1 hour, 60 min) is reported as 210 µg/mL, the “S: solubility” value ([2]; FaSSIF, 4 hours, 240 min) is reported as 80 µg/mL and the “S: solubility” value ([2]; FaSSIF, 24 hours, 1440 min) is reported as 50 µg/mL. For the same compound, the “S: solubility” value ([2]; FeSSIF, 1 hour, 60 min) was 2720 µg/mL, the “S: solubility” value ([2]; FeSSIF, 4 hours, 240 min) was 2880 µg/mL and the “S: solubility” value ([2]; FeSSIF, 24 hours, 1440 min) was 2740 µg/mL. The “S: solubility” value ([2]; H2O, 1 hour, 60 min) was 140 µg/mL, the “S: solubility” value ([2]; H2O, 4 hours, 240 min) was 110 µg/mL and the “S: solubility” value ([2]; H2O, 24 hours, 1440 min) was 110 µg/mL. For the same compound, the “S: solubility” value ([2]; SGF, 1 hour, 60 min) was 6840 µg/mL, the “S: solubility” value ([2]; SGF, 4 hours, 240 min) was 7670 µg/mL and the “S: solubility” value ([2]; SGF, 24 hours, 1440 min) was 7760 µg/mL. The pH ([2]; FaSSIF, 1 hour) was 6.3, the pH ([2]; FaSSIF, 4 hours) was 6.3 and the pH ([2]; FaSSIF, 24 hours) was 6.4. For the same compound, the pH ([2]; FeSSIF, 1 hour) was 5.1, the pH ([2]; FeSSIF, 4 hours) was 5.1 and the pH ([2]; FeSSIF, 24 hours) was 5.1. The pH ([2]; H2O, 1 hour) was 5.4, the pH ([2]; H2O, 4 hours) was 6.0 and the pH ([2]; H2O, 24 hours) was 5.8. The pH ([2]; SGF, 1 hour) was 3.2, the pH ([2]; SGF, 4 hours) was 3.3 and the pH ([2]; SGF, 24 hours) was 3.2. The “DVS behaviour when higher than 10% RH” value ([3]; higher than 10% RH) was “absorb more moisture and gain more weight with the increase of humidity”, the “DVS behaviour when lower than 10% RH” value ([3]; lower than 10% RH) was “rapidly dehydrate” and the “HPLC results Purity (area%)” value ([4]; 25°C/60%RH/open, 1 week) was 97.13 area%. For the same compound, the “HPLC results Purity (area%)” value ([4]; 40°C/75%RH/open, 1 week) was 97.14 area%, the “HPLC results Purity (area%)” value ([4]; Onset) was 97.06 area% and the Crystal form ([4]; XRPD after 25°C/60%RH/open, 1 week) was “Crystal form A of compound of formula I”. The Crystal form ([4]; XRPD after 40°C/75%RH/open, 1 week) was “Crystal form A of compound of formula I”, the solid state stability ([4]; open, one week at 25°C/60% RH and 40°C/75% RH) was “good stability” and the “Area (%) of main peak (relative retention time 1.00) After vacuum drying at 60°C” value ([5]; vacuum drying at 60°C for 4 hours, onset 97.07) was 97.11%. The “change in HPLC purity before and after drying” value ([5]; vacuum drying at 60°C/80°C for 4 hours) was “no significant change in purity”, the “crystal form after vacuum drying (XRPD)” value ([5]; vacuum drying at 60°C/80°C for 4 hours, then 19°C/27% RH for 10-15 min) was “still the crystal form A of the compound of formula I” and the “Area (%) of main peak (relative retention time 1.00) After vacuum drying at 80°C” value ([5]; vacuum drying at 80°C for 4 hours, onset 97.07) was 97.14%.

With `Cc1nc(N[C@H](C)c2cccc(C(F)(F)F)c2C)c2cn(C3(CF)CC3)c(=O)cc2n1` [Control compound 1, reference compound] the IC50 (H358 cells) was 13 nM, the “Remaining percentage (%) of compound after incubation for 30 min” value [6] was 70.2% and the IC50 [7] was 72 nM.
